In paper PMC6790288 (The journal of pain : official journal of the American Pain …, 2019):

Assays:
healthy participants [1] = test: Respiratory rate; details: trial B (with paroxetine), n = 60; MPD (SD)
[2] = 12 participants, 5 days rifampicin, 100 mg oral tramadol; cited from earlier work
[3] = tramadol and its metabolites; cited from earlier work
[4] = cited from earlier work
[5] = achiral analyses of blood; intoxication with the labelled substance; cited from earlier work
cold-induced pain [6] = details: VAS, mean [SD], cited from earlier work
pupil diameter = test: Pupillometry; type: in vivo, human; details: trial A; for Pupil diameter, predose: before first dose of segment
cold-induced pain [7] = test: Cold pressor test; type: in vivo, human; details: trial A
healthy participants [8] = test: Abuse liability visual analog scales; type: in vivo, human; details: trial A, n = 43, 0–100 mm VAS after seventh dose, M (SD)
healthy participants [9] = test: Drug-related adverse events

SMILES: COc1cccc(C2(O)CCCCC2CN(C)C)c1 (centres unmarked) [Tramadol, tramadol]
- Average postdose respiratory rate, mean paired difference versus placebo (healthy participants [1]): −.34 [.99] min^−1
- decrease of AUC by rifampicin induction [2]: 59%
- tramadol dose appearing in the urine [3]: > 90%
- lethal dose [4]: > 5 g
- median ingested dose in overdose with respiratory depression ([4]; in vivo): 2,500 mg
- median ingested dose in overdose with no respiratory depression ([4]; range = 450−6,000 mg): 1,000 mg
- mean blood M1 level in fatal intoxications [5]: 1,900 ng/mL
- peak mean pain perception to cold after tramadol (cold-induced pain [6]; after a single 50 mg dose of tramadol): 5.0 [2.3] cm
- peak mean pain perception to cold before tramadol (cold-induced pain [6]; before a single 50 mg dose of tramadol): 6.3 [2.0] cm
- pupil diameter, mean paired reduction compared with placebo (pupil diameter; after dosing, mean (SD)): −.7 (.6) mm
- Pupil diameter, after seventh dose (pupil diameter; n = 43, M (SD)): 5.5 (1.1) mm
- Pupil diameter, predose (pupil diameter; n = 43, M (SD)): 6.1 (.9) mm
- Pupil diameter, predose (pupil diameter; n = 43, M (SD), listed as tramadol): 6.1 [.9] mm
- average duration of tolerance to pain (cold-induced pain [7]): 62 s
- Drug liking-disliking (healthy participants [8]): 48(15) mm
- Strength of drug effect (healthy participants [8]): 32 (29) mm
- Take drug again (healthy participants [8]): 47(18) mm
- Strength of drug effect (healthy participants [8]; listed as tramadol): 32 [29] mm
- Deaths (healthy participants [9]; trial A): 0 (0) n (%)
- Severe AEs (healthy participants [9]; trial A): 0 (0) n (%)
- participants reporting drug-related AEs (healthy participants [9]; trial A): 49%
- Dizziness (healthy participants [9]; trial A, all): 5(12) n (%)
- Euphoria (healthy participants [9]; trial A, all): 0 (0) n (%)
- Feel abnormal (healthy participants [9]; trial A, all): 1 (2) n (%)
- Feel hot (healthy participants [9]; trial A, all): 0 (0) n (%)
- Headache (healthy participants [9]; trial A, all): 7(17) n (%)
- Nausea (healthy participants [9]; trial A, all): 5(12) n (%)
- Presyncope (healthy participants [9]; trial A, all): 0 (0) n (%)
- Pruritus (healthy participants [9]; trial A, all): 4(10) n (%)
- Somnolence (healthy participants [9]; trial A, all): 2 (5) n (%)
- Spasticity (healthy participants [9]; trial A, all): 1 (2) n (%)
- Sweating (healthy participants [9]; trial A, all): 0 (0) n (%)
- Vomiting (healthy participants [9]; trial A, all): 1 (2) n (%)
- Dizziness (healthy participants [9]; trial A, male): 5(12) n (%)
- Euphoria (healthy participants [9]; trial A, male): 0 (0) n (%)
- Feel abnormal (healthy participants [9]; trial A, male): 1 (2) n (%)
- Feel hot (healthy participants [9]; trial A, male): 0 (0) n (%)
- Headache (healthy participants [9]; trial A, male): 7(17) n (%)
- Nausea (healthy participants [9]; trial A, male): 5(12) n (%)
- Presyncope (healthy participants [9]; trial A, male): 0 (0) n (%)
- Pruritus (healthy participants [9]; trial A, male): 4(10) n (%)
- Somnolence (healthy participants [9]; trial A, male): 2 (5) n (%)
- Spasticity (healthy participants [9]; trial A, male): 1 (2) n (%)
- Sweating (healthy participants [9]; trial A, male): 0 (0) n (%)
- Vomiting (healthy participants [9]; trial A, male): 1 (2) n (%)
- All drug-related AEs (healthy participants [9]; trial A, n = 43 (all male)): 20 (49) n (%)
- Deaths (healthy participants [9]; trial B): 0 (0) n (%)
- Severe AEs (healthy participants [9]; trial B): 0 (0) n (%)
- participants reporting drug-related AEs (healthy participants [9]; trial B (with paroxetine)): 50%
- All drug-related AEs (healthy participants [9]; trial B (with paroxetine), n = 60): 30 (50) n (%)
- Dizziness (healthy participants [9]; trial B, all): 8(13) n (%)
- Euphoria (healthy participants [9]; trial B, all): 1 (2) n (%)
- Feel abnormal (healthy participants [9]; trial B, all): 2 (3) n (%)
- Feel hot (healthy participants [9]; trial B, all): 0 (0) n (%)
- Headache (healthy participants [9]; trial B, all): 6(10) n (%)
- Nausea (healthy participants [9]; trial B, all): 8(13) n (%)
- Presyncope (healthy participants [9]; trial B, all): 1 (2) n (%)
- Pruritus (healthy participants [9]; trial B, all): 1 (2) n (%)
- Somnolence (healthy participants [9]; trial B, all): 4(7) n (%)
- Spasticity (healthy participants [9]; trial B, all): 3 (5) n (%)
- Sweating (healthy participants [9]; trial B, all): 1 (2) n (%)
- Vomiting (healthy participants [9]; trial B, all): 2 (3) n (%)
- Dizziness (healthy participants [9]; trial B, female): 4(22) n (%)
- Euphoria (healthy participants [9]; trial B, female): 0 (0) n (%)
- Feel abnormal (healthy participants [9]; trial B, female): 0 (0) n (%)
- Feel hot (healthy participants [9]; trial B, female): 0 (0) n (%)
- Headache (healthy participants [9]; trial B, female): 6 (33) n (%)
- Nausea (healthy participants [9]; trial B, female): 2(11) n (%)
- Presyncope (healthy participants [9]; trial B, female): 0 (0) n (%)
- Pruritus (healthy participants [9]; trial B, female): 1 (6) n (%)
- Somnolence (healthy participants [9]; trial B, female): 2(11) n (%)
- Spasticity (healthy participants [9]; trial B, female): 0 (0) n (%)
- Sweating (healthy participants [9]; trial B, female): 0 (0) n (%)
- Vomiting (healthy participants [9]; trial B, female): 0 (0) n (%)
- Dizziness (healthy participants [9]; trial B, male): 4(10) n (%)
- Euphoria (healthy participants [9]; trial B, male): 1 (2) n (%)
- Feel abnormal (healthy participants [9]; trial B, male): 2 (5) n (%)
- Feel hot (healthy participants [9]; trial B, male): 0 (0) n (%)
- Headache (healthy participants [9]; trial B, male): 0 (0) n (%)
- Nausea (healthy participants [9]; trial B, male): 6(14) n (%)
- Presyncope (healthy participants [9]; trial B, male): 1 (2) n (%)
- Pruritus (healthy participants [9]; trial B, male): 0 (0) n (%)
- Somnolence (healthy participants [9]; trial B, male): 2 (5) n (%)
- Spasticity (healthy participants [9]; trial B, male): 3 (7) n (%)
- Sweating (healthy participants [9]; trial B, male): 1 (2) n (%)
- Vomiting (healthy participants [9]; trial B, male): 2 (5) n (%)
- headache incidence, tramadol compared with desmetramadol AE profile (healthy participants [9]; trial B, same participants): −40%
- nausea incidence, tramadol compared with desmetramadol AE profile (healthy participants [9]; trial B, same participants): −50%
- presyncope incidence, tramadol compared with desmetramadol AE profile (healthy participants [9]; trial B, same participants): −83%
- pruritus incidence, tramadol compared with desmetramadol AE profile (healthy participants [9]; trial B, same participants): −75%
- somnolence incidence, tramadol compared with desmetramadol AE profile (healthy participants [9]; trial B, same participants): −60%
- vomiting incidence, tramadol compared with desmetramadol AE profile (healthy participants [9]; trial B, same participants): −78%
